Among the data in patent publication US20100022531A1, “NOVEL COMPOUNDS AS P2X7 MODULATORS AND USES THEREOF” (RENOVIS, INC., priority 2005, published 2010) are inhibition values, retold here.

SMILES strings stand for the structures.

The target in one test is T1, P2X7 receptor (Homo sapiens, UniProt Q99572).
T1 construct: host or cells: THP-1 cells differentiated with LPS and IFN-γ
T1 sequence (Q99572 1-595): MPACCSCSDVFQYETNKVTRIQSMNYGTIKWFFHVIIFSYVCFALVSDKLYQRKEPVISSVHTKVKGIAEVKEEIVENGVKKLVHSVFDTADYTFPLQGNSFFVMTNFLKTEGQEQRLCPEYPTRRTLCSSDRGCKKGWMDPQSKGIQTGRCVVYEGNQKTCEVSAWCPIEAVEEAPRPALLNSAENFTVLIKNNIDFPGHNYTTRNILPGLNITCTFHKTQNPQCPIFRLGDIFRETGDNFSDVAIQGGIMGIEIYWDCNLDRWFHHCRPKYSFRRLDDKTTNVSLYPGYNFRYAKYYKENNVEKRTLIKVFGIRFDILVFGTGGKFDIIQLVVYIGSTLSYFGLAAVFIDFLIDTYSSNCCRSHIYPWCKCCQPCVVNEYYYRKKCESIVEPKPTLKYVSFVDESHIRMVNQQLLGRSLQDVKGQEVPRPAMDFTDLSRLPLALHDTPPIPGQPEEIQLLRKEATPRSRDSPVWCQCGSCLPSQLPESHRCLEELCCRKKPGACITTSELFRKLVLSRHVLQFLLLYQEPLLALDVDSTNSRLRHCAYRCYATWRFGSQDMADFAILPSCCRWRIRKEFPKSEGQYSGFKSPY
In words: Alternate method for IL-1β release assay (differentiated THP-1 cells, BzATP-stimulated, ELISA). Format: cell-based. The following applies: P2X7; 0.1 μM compound (plus symbols); read-out: IL-1β % inhib @ 0.1 μM. The procedure: Alternate Method for IL-1β Release Assay
THP-1 cells (ATCC Cat #285-IF-100) are plated in 96 well plates at a concentration of 200,000 cells per well and allowed to differentiate in RPMI-1640 media (ATCC Cat #30-2001) containing 10% FBS, 100 IU/mL penicillin, 100 ug/mL streptomycin, 100 ng/mL LPS and 100 ng/mL IFN-γ for 16 hours. Following differentiation, the cells are treated for an additional 2 hours in RPMI-1640 media containing 100 IU/mL penicillin, 100 ug/mL streptomycin and fresh LPS at 100 ng/mL. The cells are then pretreated for 30 minutes with the compound of interest at the appropriate concentration in RPMI media containing 100 IU/mL penicillin, 100 ug/mL streptomycin. Following the pretreatment 2′,3′-O-(4-benzoylbenzoyl)-adenosine 5′-triphosphate (Sigma Aldrich Cat# B6396) is added to a final concentration of 250 uM and the cells incubated for an additional 45 minutes. 30 uL of cell supernatant is then collected and IL-1β levels determined via ELISA (R&D systems Cat. # HSLB50) according to manufacturers recommendations using the Tecan Safire plate reader. Background adjusted IL-1β levels of drug treated and non-treated cells are used to calculate the percent inhibition.
For orientation: In an ELISA, binding on a coated surface is turned into a signal by an enzyme label.
Take `N#Cc1cccc(C(=O)N2CCc3c(ncnc3NCC34CC5CC(CC(C5)C3)C4)C2)c1` [Compound 97]: the inhibition at 0.1 µM is more than 75%.
Take `O=S(=O)(c1ccccc1F)N1CCc2c(ncnc2NCC23CC4CC(CC(C4)C2)C3)C1` [Compound 24]: the inhibition at 0.1 µM is more than 75%.

Staying with this test, now noted: P2X7; 0.1 μM compound (symbols + to ++++); read-out: IL-1β % inhib @ 0.1 μM.
Take `O=C(c1cccnc1)N1CCc2c(ncnc2NCC23CC4CC(CC(C4)C2)C3)C1` [Compound 257, 4-[(Adamantan-1-ylmethyl)-amino]-5,8-dihydro-6H-pyrido[3,4-d]pyrimidin-7-yl-pyridin-3-yl-methanone]: the inhibition at 0.1 µM is more than 75%.
For the compound `FC12CC3CC(C1)CC(CNc1ncnc4c1CCN(Cc1ccccc1)C4)(C3)C2` [Compound 252], the inhibition at 0.1 µM is more than 75%.
Turning to `O=C(OCCSCc1ccccc1)N1CCc2c(ncnc2NCC23CC4CC(CC(C4)C2)C3)C1` [Compound 334], the inhibition at 0.1 µM is 25 to 50%.
For `N#Cc1cccc(C(=O)N2CCc3c(ncnc3NCC34CC5CC(CC(F)(C5)C3)C4)C2)c1` [Compound 333], the inhibition at 0.1 µM lay within 25 to 50%.
The same measure, in the same setting: the same measure for `O=C(OCc1c(F)cccc1F)N1CCc2c(ncnc2NCC23CC4CC(CC(C4)C2)C3)C1` [Compound 338]: more than 75%.
With `FC12CC3CC(C1)CC(CNc1ncnc4c1CCN(Cc1ccc5c(c1)OCCO5)C4)(C3)C2` [Compound 332], the inhibition at 0.1 µM lay within 0 to 25%.
As for `CC(C)[C@H](NC(=O)OC(C)(C)C)C(=O)N1CCc2c(ncnc2NCC23CC4CC(CC(C4)C2)C3)C1` [Compound 351], the inhibition at 0.1 µM is more than 75%.
Regarding `O=C(COc1cccc(Cl)c1)N1CCc2c(ncnc2NCC23CC4CC(CC(C4)C2)C3)C1` [Compound 248, 1-{4-[(Adamantan-1-ylmethyl)-amino]-5,8-dihydro-6H-pyrido[3,4-d]pyrimidin-7-yl}-2-(3-chloro-phenoxy)-ethanone], the inhibition at 0.1 µM is more than 75%.
Take `O=C(OCc1ccc(C(F)(F)F)cc1)N1CCc2c(ncnc2NCC23CC4CC(CC(C4)C2)C3)C1` [Compound 324]: the inhibition at 0.1 µM lay in the range of 50 to 75%.

Still in this test, the particulars now being: P2X7; 0.3 μM compound (asterisk symbols); read-out: IL-1β % inhib @ 0.3 μM.
Turning to `COc1ccc(-c2ccc(S(=O)(=O)N3CCc4c(ncnc4NCC45CC6CC(CC(C6)C4)C5)C3)cc2)cc1` [Compound 35], the inhibition at 0.3 µM fell in the range of 0 to 25%.
`O=C(c1ccc(OC(F)(F)F)cc1)N1CCc2c(ncnc2NCC23CC4CC(CC(C4)C2)C3)C1` [Compound 84]: the inhibition at 0.3 µM was 0 to 25%.
The same measure, in the same setting: then `O=S(=O)(c1ccc(Oc2ccccn2)cc1)N1CCc2c(ncnc2NCC23CC4CC(CC(C4)C2)C3)C1` [Compound 29], with more than 75%; and `O=S(=O)(c1cc(Cl)ccc1Cl)N1CCc2c(ncnc2NCC23CC4CC(CC(C4)C2)C3)C1` [Compound 61], with 50 to 75%; and `CC(C)(C)C(=O)N1CCc2c(ncnc2NCC23CC4CC(CC(C4)C2)C3)C1` [Compound 107], with 50 to 75%.
As to `Cc1cc(C)cc(S(=O)(=O)N2CCc3c(ncnc3NCC34CC5CC(CC(C5)C3)C4)C2)c1` [Compound 73], the inhibition at 0.3 µM was 0 to 25%.
Take `CCN1CCc2c(ncnc2NCC23CC4CC(CC(C4)C2)C3)C1` [Compound 190]: the inhibition at 0.3 µM is 25 to 50%.
Same read-out and setting: the same measure for `Cc1ccccc1S(=O)(=O)N1CCc2c(ncnc2NCC23CC4CC(CC(C4)C2)C3)C1` [Compound 56]: 25 to 50%; for `O=S(=O)(Cc1ccc(F)cc1)N1CCc2c(ncnc2NCC23CC4CC(CC(C4)C2)C3)C1` [Compound 40]: 0 to 25%; for `COc1ccc(S(=O)(=O)N2CCc3c(ncnc3NCC34CC5CC(CC(C5)C3)C4)C2)cc1` [Compound 10]: 25 to 50%.
In the case of `O=S(=O)(Cc1cc(C(F)(F)F)cc(C(F)(F)F)c1)N1CCc2c(ncnc2NCC23CC4CC(CC(C4)C2)C3)C1` [Compound 38], the inhibition at 0.3 µM is 0 to 25%.
With `COc1ccc(CN2CCc3c(ncnc3NCC34CC5CC(CC(C5)C3)C4)C2)c(Cl)c1OC` [Compound 197], the inhibition at 0.3 µM lay within 0 to 25%.
Consider `O=S(=O)(c1cc(F)ccc1F)N1CCc2c(ncnc2NCC23CC4CC(CC(C4)C2)C3)C1` [Compound 60], for which the inhibition at 0.3 µM lay within 25 to 50%.
Same read-out and setting: the same measure for `CC(C)S(=O)(=O)N1CCc2c(ncnc2NCC23CC4CC(CC(C4)C2)C3)C1` [Compound 70]: 50 to 75%; for `O=C(c1ccc(C(F)(F)F)cc1F)N1CCc2c(ncnc2NCC23CC4CC(CC(C4)C2)C3)C1` [Compound 121]: 25 to 50%; for `O=S(=O)(c1ccc(F)cc1)N1CCc2c(ncnc2NCC23CC4CC(CC(C4)C2)C3)C1` [Compound 13]: 25 to 50%.
With `O=S(=O)(c1cccc(OC(F)(F)F)c1)N1CCc2c(ncnc2NCC23CC4CC(CC(C4)C2)C3)C1` [Compound 20], the inhibition at 0.3 µM was 25 to 50%.
On to `CC1(C)C2CC=C(CN3CCc4c(ncnc4NCC45CC6CC(CC(C6)C4)C5)C3)C1C2` (centres unmarked) [Compound 184], for which the inhibition at 0.3 µM was more than 75%.
The same measure, in the same setting: then `O=S(=O)(Cc1ccc(C(F)(F)F)cc1)N1CCc2c(ncnc2NCC23CC4CC(CC(C4)C2)C3)C1` [Compound 39], with 0 to 25%.

The same test, now with this note: P2X7; 0.3 μM compound (symbols * to ****); read-out: IL-1β % inhib @ 0.3 μM.
On to `COc1ccc(F)c(CN2CCc3c(ncnc3NCC34CC5CC(CC(C5)C3)C4)C2)c1` [Compound 239], for which the inhibition at 0.3 µM was in the range of 0 to 25%.
`COc1ccc(CN2CCc3c(ncnc3NCC34CC5CC(CC(C5)C3)C4)C2)c(OC)c1` [Compound 219]: the inhibition at 0.3 µM is 0 to 25%.
For `O=C(CN1CCN(c2ncncn2)CC1)N1CCc2c(ncnc2NCC2C3CC4CC(C3)CC2C4)C1` (centres unmarked) [Compound 302], the inhibition at 0.3 µM lay in the range of 25 to 50%.
For the compound `Fc1cc(C(F)(F)F)ccc1CN1CCc2c(ncnc2NCC23CC4CC(CC(C4)C2)C3)C1` [Compound 223], the inhibition at 0.3 µM is more than 75%.
As to `CCOc1ccc(CN2CCc3c(ncnc3NCC34CC5CC(CC(C5)C3)C4)C2)cc1` [Compound 241], the inhibition at 0.3 µM is more than 75%.
Take `FC(F)Oc1ccc(CN2CCc3c(ncnc3NCC34CC5CC(CC(C5)C3)C4)C2)cc1` [Compound 232]: the inhibition at 0.3 µM was 0 to 25%.
Consider `O=C(CN1CCC(c2ccccc2)CC1)N1CCc2c(ncnc2NCC2C3CC4CC(C3)CC2C4)C1` (centres unmarked) [Compound 294], for which the inhibition at 0.3 µM was in the range of 0 to 25%.
In the case of `COc1cc(CN2CCc3c(ncnc3NCC34CC5CC(CC(C5)C3)C4)C2)cc(Br)c1OC` [Compound 205], the inhibition at 0.3 µM was in the range of 0 to 25%.
For the compound `Fc1ccc(CN2CCc3c(ncnc3NCC34CC5CC(CC(C5)C3)C4)C2)c(F)c1` [Compound 220], the inhibition at 0.3 µM was more than 75%.
On the same count and under the same terms, then `O=C(CN1CCC(Cc2ccccc2)CC1)N1CCc2c(ncnc2NCC23CC4CC(CC(C4)C2)C3)C1` [Compound 264], with 25 to 50%; and `O=C(CN1CCc2ccccc2C1)N1CCc2c(ncnc2NCC2C3CC4CC(C3)CC2C4)C1` (centres unmarked) [Compound 274], with 25 to 50%.
Regarding `CC(=O)Nc1ccc(CN2CCc3c(ncnc3NCC34CC5CC(CC(C5)C3)C4)C2)cc1` [Compound 227], the inhibition at 0.3 µM was 0 to 25%.
On the same count and under the same terms, the same measure for `CN(CC(=O)N1CCc2c(ncnc2NCC2C3CC4CC(C3)CC2C4)C1)Cc1ccc(F)cc1` (centres unmarked) [Compound 312]: 0 to 25%.

Staying with this test, now noted: P2X7; at 0.03 μM (asterisk symbols); read-out: IL-1β % inhib @ 0.3 μM or @ 0.03 μM.
Consider `CC(C)(C)OC(=O)N[C@@H](Cc1ccccc1)C(=O)N1CCc2c(ncnc2NCC(O)C23CC4CC(CC(C4)C2)C3)C1` (stereo partly drawn) [Compound 709, {(S)-2-[4-(2-Adamantan-1-yl-2-hydroxy-ethylamino)-5,8-dihydro-6H-pyrido[3,4-d]pyrimidin-7-yl]-1-benzyl-2-oxo-ethyl}-carbamic acid tert-butyl ester], for which the inhibition at 0.03 µM lay within 0 to 25%.
